Values of other authors as cited in patent US20210299077A1, “LIPOSOMAL REDUCED GLUTATHIONE (LRG) IN COMBINATION WITH IVERMECTIN FOR THE TREATMENT OF COVID-19” (Your Energy Systems, LLC, priority 2020, published 2021).
Where two headings read alike, the source gives them in different places.

How the values were obtained:
[1] = system: SARS-CoV; details: in vitro studies
[2] = single oral dose of 2000 mg
[3] = system: SARS-CoV-2
[4] = system: influenza viruses; details: 300 mg twice a day for 5 days
[5] = system: COVID-19; details: COVID-19 patients
[6] = system: SARS-CoV; details: mouse SARS-CoV model
[7] = patients receiving remdesivir

## O=C(Nc1ccc([N+](=O)[O-])cc1Cl)c1cc(Cl)ccc1O [niclosamide]
[1]
  inhibition of SARS-CoV replication: able to inhibit SARS-CoV replication at a micromolar concentration
[2]
  maximum serum concentration: 0.25 to 6.0 µg/mL
[2]; same range in μM
  maximum serum concentration: 0.76 to 18.3 µM
other
  aqueous solubility: limited aqueous solubility

## CCN(CCO)CCCC(C)Nc1ccnc2cc(Cl)ccc12 (stereo not shown) [hydroxychloroquine]
[3]
  in-vitro activity against SARS-CoV-2: relatively higher potency against SARS-CoV-2

## CC(=O)Oc1ccccc1C(=O)Nc1ncc([N+](=O)[O-])s1 [NTZ, Nitazoxanide]
[4]
  symptoms and infectious viral load: reduction of symptoms and infectious viral load
  tolerability: well tolerated

## CCN(CC)CCCC(C)Nc1ccnc2cc(Cl)ccc12 (stereo not shown) [chloroquine]
[5]
  clinical and virologic outcome versus a comparison group: clinical and virologic benefit
[6]
  efficacy in inhibiting viral replication: did not show efficacy

## CCC(CC)COC(=O)[C@H](C)N[P@](=O)(OC[C@H]1O[C@@](C#N)(c2ccc3c(N)ncnn23)[C@H](O)[C@@H]1O)Oc1ccccc1 [Remdesivir]
[7]
  adverse events: nausea, vomiting, rectal bleeding, and elevated liver enzymes
